Test results from DBAASP.
Converted amounts (≈) assume the structure as drawn. Values belong to the molecule of their own block, whether it stands above or below them.

Assays:
Experiment in all cases: ≥ marks a high value that may be exact or a test limit, other limits are often not marked, values filed in µg/mL are converted to µM
Acinetobacter baumannii = tested on: Acinetobacter baumannii
Enterococcus faecalis = tested on: Enterococcus faecalis
Pseudomonas aeruginosa = tested on: Pseudomonas aeruginosa
Staphylococcus aureus = tested on: Staphylococcus aureus
[1] = tested on: Burkholderia cepacia ATCC 25416
Escherichia coli UB1005 = tested on: Escherichia coli UB1005
[2] = tested on: Pseudomonas aeruginosa H547
[3] = tested on: Pseudomonas aeruginosa H744
[4] = tested on: Pseudomonas aeruginosa K799
[5] = tested on: Pseudomonas aeruginosa Z61
[6] = tested on: Salmonella enterica subsp. enterica serovar Typhimurium ATCC 14028s
[7] = tested on: Candida albicans NCYC 1467
[8] = tested on: Escherichia coli NCTC 10418
[9] = tested on: Pseudomonas aeruginosa ATCC 27853
[10] = tested on: Staphylococcus aureus NCTC 10788
[11] = tested on: Staphylococcus aureus NCTC 12493
Escherichia coli = tested on: Escherichia coli
Klebsiella pneumoniae = tested on: Klebsiella pneumoniae
[12] = tested on: Staphylococcus epidermidis
[13] = tested on: Bacillus subtilis CMCC 63501
[14] = tested on: Enterococcus faecalis ATCC 29212
[15] = tested on: Escherichia coli ATCC 25922
[16] = tested on: Salmonella enterica subsp. enterica serovar Pullorum C79-13
[17] = tested on: Salmonella enterica subsp. enterica serovar Typhimurium C77-31
[18] = tested on: Staphylococcus aureus ATCC 29213
[19] = tested on: Staphylococcus aureus ATCC 43300
[20] = tested on: Staphylococcus epidermidis ATCC 12228
[21] = tested on: Salmonella enterica subsp. enterica serovar Typhimurium ATCC 14028
[22] = tested on: Bacillus subtilis ATCC 23857
[23] = tested on: Candida albicans ATCC 90028
[24] = tested on: Cryptococcus neoformans ATCC 28957

Compound: CC[C@H](C)[C@H](NC(=O)[C@H](CC(C)C)NC(=O)[C@H](C)NC(=O)[C@H](CC(C)C)NC(=O)[C@@H]1CCCN1C(=O)[C@H](CCCCN)NC(=O)[C@H](C)NC(=O)[C@@H](NC(=O)[C@@H](NC(=O)[C@@H](NC(=O)[C@@H](NC(=O)[C@H](CCCCN)NC(=O)[C@H](CCCCN)NC(=O)[C@H](C)NC(=O)[C@H](C)NC(=O)[C@H](CO)NC(=O)[C@@H](NC(=O)[C@H](CC(C)C)NC(=O)[C@H](CCCCN)NC(=O)[C@H](CCCCN)NC(=O)[C@@H](NC(=O)[C@H](Cc1ccccc1)NC(=O)[C@H](CO)NC(=O)[C@H](CCCCN)NC(=O)[C@H](Cc1c[nH]c2ccccc12)NC(=O)[C@@H](N)CCCCN)[C@@H](C)CC)[C@@H](C)O)C(C)C)C(C)C)[C@@H](C)O)[C@@H](C)O)C(=O)N[C@@H](CO)C(=O)O [KWKSFIKKLTSAAKKVVTTAKPLALIS]
MIC [1]: 21.6 µM (≈ 64 µg/mL)
MIC (Escherichia coli UB1005): 0.676 µM (≈ 2 µg/mL)
MIC [2]: 5.41 µM (≈ 16 µg/mL)
MIC [3]: 0.676 µM (≈ 2 µg/mL)
MIC [4]: 1.35 µM (≈ 4 µg/mL)
MIC [5]: 1.35 µM (≈ 4 µg/mL)
MIC [6]: 1.69 µM (≈ 5 µg/mL)

Compound: CC[C@H](C)[C@H](NC(=O)[C@H](CCCCN)NC(=O)[C@H](CCCCN)NC(=O)[C@H](Cc1c[nH]c2ccccc12)NC(=O)[C@H](CC(C)C)NC(=O)[C@H](C)N)C(=O)N[C@@H](CC(C)C)C(=O)N[C@@H](CCCCN)C(=O)N[C@@H](CC(N)=O)C(=O)N[C@@H](C)C(=O)NCC(=O)N[C@@H](CCCCN)C(=O)N[C@@H](C)C(=O)N[C@@H](C)C(=O)N[C@@H](CC(C)C)C(=O)N[C@@H](CC(N)=O)C(=O)N[C@@H](CCCCN)C(=O)N[C@H](C(=O)N[C@@H](CC(N)=O)C(=O)N[C@@H](CCC(N)=O)C(=O)N[C@H](C(=O)N[C@H](C(=O)N[C@@H](CCC(N)=O)C(N)=O)C(C)C)[C@@H](C)CC)[C@@H](C)CC [ALWKKILKNAGKAALNKINQIVQ]
MIC [7]: 4 µM (≈ 10.2 µg/mL)
MIC [8]: 8 µM (≈ 20.5 µg/mL)
MIC [10]: 8 µM (≈ 20.5 µg/mL)

Compound: C[C@H](NC(=O)[C@H](C)NC(=O)[C@H](CCCCN)NC(=O)[C@H](C)NC(=O)[C@H](C)NC(=O)[C@H](C)NC(=O)[C@H](CCCCN)NC(=O)[C@H](Cc1c[nH]c2ccccc12)NC(=O)[C@@H](N)Cc1c[nH]c2ccccc12)C(=O)N[C@@H](C)C(=O)N[C@@H](CCCCN)C(=O)N[C@@H](Cc1c[nH]c2ccccc12)C(=O)N[C@@H](Cc1c[nH]c2ccccc12)C(N)=O [WWKAAAKAAAKWW]
MIC [13]: 4 µM (≈ 6.29 µg/mL)
MIC [14]: 4 µM (≈ 6.29 µg/mL)
MIC [15]: 2 µM (≈ 3.15 µg/mL)
MIC (Escherichia coli UB1005): 4 µM (≈ 6.29 µg/mL)
MIC [9]: 8 µM (≈ 12.6 µg/mL)
MIC [16]: 2 µM (≈ 3.15 µg/mL)
MIC [21]: 8 µM (≈ 12.6 µg/mL)
MIC [18]: 4 µM (≈ 6.29 µg/mL)
MIC [20]: 4 µM (≈ 6.29 µg/mL)

Compound: CC[C@H](C)[C@H](N)C(=O)N[C@H](C(=O)N[C@@H](CC(N)=O)C(=O)N[C@@H](Cc1cnc[nH]1)C(=O)N[C@@H](CC(C)C)C(=O)N[C@H](C(=O)N[C@@H](CCCCN)C(=O)N[C@@H](CC(C)C)C(=O)N[C@@H](Cc1ccccc1)C(=O)N[C@@H](CC(=O)O)C(=O)N[C@@H](CCCCN)C(=O)NCC(=O)N[C@@H](CC(C)C)C(=O)N[C@@H](CC(N)=O)C(=O)N[C@@H](CO)C(=O)N[C@H](C(=O)N[C@H](C(=O)N[C@@H](CC(N)=O)C(=O)N[C@@H](CC(C)C)C(=O)N[C@@H](CCCN=C(N)N)C(N)=O)C(C)C)[C@@H](C)CC)C(C)C)C(C)C [IVNHLVKLFDKGLNSIVNLR]
MIC [22]: ≥ 64 µM
MIC [23]: ≥ 128 µM
MIC [24]: ≥ 128 µM

More lines, now with the values ahead:

MIC (Acinetobacter baumannii): 0.203 µM (≈ 0.4 µg/mL)
MIC (Enterococcus faecalis): 0.356 µM (≈ 0.7 µg/mL)
MIC (Pseudomonas aeruginosa): 0.61 µM (≈ 1.2 µg/mL)
MIC (Staphylococcus aureus): 0.254 µM (≈ 0.5 µg/mL)
Compound: CC(C)C[C@H](NC(=O)[C@H](CC(C)C)NC(=O)[C@H](CCCCN)NC(=O)[C@H](CCCCN)NC(=O)[C@H](C)NC(=O)[C@H](CC(C)C)NC(=O)[C@H](C)NC(=O)[C@H](CCCCN)NC(=O)[C@H](CC(C)C)NC(=O)[C@H](Cc1c[nH]c2ccccc12)NC(=O)[C@H](Cc1c[nH]c2ccccc12)NC(=O)[C@H](CCCN=C(N)N)NC(=O)[C@H](Cc1c[nH]c2ccccc12)NC(=O)[C@H](CCCCN)NC(=O)[C@@H](N)CCCCN)C(N)=O [KKWRWWLKALAKKLL]

MIC [7]: 4 µM (≈ 9.12 µg/mL)
MIC [8]: 16 µM (≈ 36.5 µg/mL)
MIC [9]: > 512 µM
MIC (Pseudomonas aeruginosa): > 512 µM
MIC [10]: 4 µM (≈ 9.12 µg/mL)
MIC [11]: 4 µM (≈ 9.12 µg/mL)
MIC (Staphylococcus aureus): 8 µM (≈ 18.2 µg/mL)
Compound: CC[C@H](C)[C@@H]1NC(=O)[C@@H](NC(=O)[C@H](Cc2ccccc2)NC(=O)[C@H](C)NC(=O)[C@H](CCCCN)NC(=O)[C@H](CCCCN)NC(=O)[C@H](CC(C)C)NC(=O)[C@H](CC(C)C)NC(=O)[C@H](Cc2ccccc2)NC(=O)[C@@H](NC(=O)[C@H](CO)NC(=O)[C@@H]2CCCN2C(=O)[C@@H](NC(=O)[C@@H](NC(=O)[C@@H](N)Cc2ccccc2)[C@@H](C)CC)C(C)C)[C@@H](C)CC)CSSC[C@@H](C(=O)O)NC(=O)[C@H](CCCCN)NC(=O)[C@H](CCCCN)NC(=O)[C@H](CC(C)C)NC(=O)[C@H](C)NC1=O [FIVPSIFLLKKAFCIALKKC]

MIC (Acinetobacter baumannii): 1.3 µM (≈ 3.17 µg/mL)
MIC (Enterococcus faecalis): 2.6 µM (≈ 6.34 µg/mL)
MIC (Escherichia coli): 1.3 µM (≈ 3.17 µg/mL)
MIC (Klebsiella pneumoniae): 1.3 µM (≈ 3.17 µg/mL)
MIC (Pseudomonas aeruginosa): 2.6 µM (≈ 6.34 µg/mL)
MIC (Staphylococcus aureus): 10.3 µM (≈ 25.1 µg/mL)
MIC [12]: 2.6 µM (≈ 6.34 µg/mL)
Compound: CC[C@H](C)[C@H](NC(=O)CNC(=O)[C@H](CCCN=C(N)N)NC(=O)[C@H](Cc1ccc(O)cc1)NC(=O)[C@H](CC(C)C)NC(=O)[C@H](CCCCN)NC(=O)CNC(=O)[C@H](Cc1ccccc1)NC(=O)[C@@H](N)Cc1c[nH]c2ccccc12)C(=O)N[C@H](C(=O)N[C@@H](CO)C(=O)N[C@H](C(=O)N[C@H](C(=O)N[C@@H](CCCCN)C(=O)N[C@@H](CCCCN)C(=O)N[C@H](C(=O)N[C@@H](CCCCN)C(=O)NCC(=O)N[C@@H](CC(C)C)C(=O)N[C@@H](CC(C)C)C(=O)N[C@@H](CO)C(=O)NCC(=O)O)C(C)C)C(C)C)C(C)C)[C@@H](C)O [WFGKLYRGITSVVKKVKGLLSG]

MIC [13]: ≥ 128 µM
MIC [14]: > 128 µM
MIC [15]: 32 µM (≈ 65 µg/mL)
MIC (Escherichia coli UB1005): ≥ 128 µM
MIC [9]: > 128 µM
MIC [16]: 16 µM (≈ 32.5 µg/mL)
MIC [17]: ≥ 128 µM
MIC [18]: > 128 µM
MIC [19]: > 128 µM
MIC [20]: > 128 µM
Compound: CC[C@H](C)[C@H](NC(=O)[C@H](CCCN=C(N)N)NC(=O)[C@H](CCCCN)NC(=O)[C@H](Cc1ccccc1)NC(=O)[C@H](CCC(=O)O)NC(=O)[C@H](CCCCN)NC(=O)CN)C(=O)N[C@H](C(=O)N[C@@H](Cc1c[nH]c2ccccc12)C(=O)N[C@@H](CC(C)C)C(=O)N[C@@H](CO)C(=O)N[C@@H](CCCCN)C(=O)N[C@H](C(=O)N[C@@H](C)C(=O)N[C@@H](CCCCN)C(=O)N[C@@H](CCCCN)C(=O)N[C@@H](CC(C)C)C(N)=O)[C@@H](C)O)C(C)C [GKEFKRIVWLSKTAKKL]
